One assay concerns the target T1, 5-lipoxygenase (Rattus norvegicus, UniProt P12527).
T1 construct: supernatant fraction of Rat Basophilic Leukemia Cell Homogenate (RBL-1) serves as a 5-lipoxygenase enzyme source; endogenous in cells; host or cells: RBL-1 (rat basophilic leukemia) cells, 100,000×g supernatant of homogenate
T1 sequence (P12527 1-673): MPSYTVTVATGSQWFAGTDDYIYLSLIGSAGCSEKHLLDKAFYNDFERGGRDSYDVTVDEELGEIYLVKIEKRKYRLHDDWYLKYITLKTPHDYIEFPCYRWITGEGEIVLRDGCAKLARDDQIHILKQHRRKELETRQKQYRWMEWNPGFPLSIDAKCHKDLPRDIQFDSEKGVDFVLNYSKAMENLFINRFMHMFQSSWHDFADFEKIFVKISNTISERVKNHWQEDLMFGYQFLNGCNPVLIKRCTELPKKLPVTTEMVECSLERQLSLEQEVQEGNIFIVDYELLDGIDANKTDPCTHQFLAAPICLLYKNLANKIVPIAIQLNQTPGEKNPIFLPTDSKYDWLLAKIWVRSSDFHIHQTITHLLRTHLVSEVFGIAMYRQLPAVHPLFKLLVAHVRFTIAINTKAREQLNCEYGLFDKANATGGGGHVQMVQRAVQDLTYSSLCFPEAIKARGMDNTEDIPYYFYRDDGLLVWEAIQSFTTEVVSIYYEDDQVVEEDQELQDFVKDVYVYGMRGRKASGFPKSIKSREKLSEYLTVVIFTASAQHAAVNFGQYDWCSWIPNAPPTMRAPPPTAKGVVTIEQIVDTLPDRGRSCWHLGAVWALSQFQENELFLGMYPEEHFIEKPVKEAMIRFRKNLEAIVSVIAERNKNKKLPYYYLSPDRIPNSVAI
The experiment in a line: Inhibition of 5-lipoxygenase, in vitro. Conditions: 100,000×g supernatant of RBL-1 homogenate, 14C-arachidonic acid, 5-HETE measured. In kind it is biochemical. How it is done:
The compounds of the invention are evaluated with respect to 5-lipoxygenaseinhibition according to the following assay procedures.
(1) Inhibition of 5-lipoxygenase, in vitro: anti-inflammatory, anti-allergyactivities.
The 100,000×g supernatant fraction of Rat Basophilic Leukemia Cell Homogenate (RBL-1) serves as a 5-lipoxygenase enzyme source. The enzyme is incubated with [(1-^14 C)-arachidonic acid and Ca++ in the presence and absence of test compound. The product of 5-lipoxygenase, 5-hydroxyeicosatetraenoic acid (5-HETE), is separated by thin-layer chromatography and measured by radioactivity. A compound inhibiting 5-HETE synthesis by 30% or more is considered active at that concentration.

The test system of assay [1] is OA-induced bronchoconstriction in the Guinea Pig. In words: In vivo inhibition of ovalbumin-induced bronchoconstriction - Anti-allergy assay. The text has this: (2) In vivo inhibition of ovalbumin-induced bronchoconstriction-Anti-allergy assay.
Adult, male Hartley guinea pigs (300-350 g, fasted) actively sensitized to ovalbumin are utilized in this assay.
Ovalbumin (OA) causes bronchoconstriction when administered to actively-sensitized guinea pigs. The observed bronchoconstriction is comprised of at least two distinct components:
(a) a cyclooxygenase-dependent, rapidly occurring bronchoconstriction mediated by thromboxane A2 and possibly other mediators and
(b) a 5-lipoxygenase dependent slow developing component, dependent upon the de novo generation of LTC4 and LTD4.
All test animals are pretreated with aspirin and pyrilamine to block the occurrence of the rapidly occurring component (a). Compounds which block the generation of LTC4 and LTD4 (5-lipoxygenase inhibitors) or antagonize the activity of LTC4 /LTD4 (leukotriene inhibitors) modulate the severity of the remaining component of this well-characterized anaphylactic response.
Test compounds are administered at screening doses of 50 mg/kg, i.v., or 100 mg/kg, i.g. A compound is rated active in this test if it causes a significant reduction (i.e., p 0.05, student's t-test) in intratracheal insufflation pressure induced by an i.v. injection of ovalbumin (3 mg/ml, i.v.), aspirin (5 mg/kg, i.v.) and propanolol (6 mg/kg i.p.). Treated animals are statistically compared to concurrent vehicle treated controls. Compounds rated active in inhibiting the production of the LTC4 /LTD4 allergic mediators through inhibition of 5-lipoxygenase according to this test are believed to play a significant role in bronchopulmonary allergic conditions, e.g., asthma.

For assay [2] the following is noted: more potent than histamine; cited from earlier work.
Setting [3] is: i.g. @ 3 hr., vehicle 2 (peanut oil).
Setting [4] is: i.g. @ 3 hr., vehicle 1 (20% DMSO in polyethylene glycol).

Where a name gives a salt, the structure may show the parent alone.

At 5-lipoxygenase, `COC(=O)CSCC(O)CSc1cc(C(C)(C)C)c(O)c(C(C)(C)C)c1` (centres unmarked) [Example 42, methyl[[3-[[3,5-bis(1,1-dimethylethyl)-4-hydroxyphenyl]thio]-2-hydroxypropyl]thio]acetate] came in with an IC50 of 310 nM. Moreover, the “Antagonism of OA-induced bronchoconstriction in the Guinea Pig (min. effective dose)” value (shortened to “Antagonism”) in assay [1] (i.g. @ 2 hr., vehicle 1 (20% DMSO in polyethylene glycol)) is given as 50 mg/kg.

Compound `CC(C)(C)c1cc(SCCSCC(=O)O)cc(C(C)(C)C)c1O` [Example 4, [[2-[[3,5-bis(1,1-dimethylethyl)-4-hydroxyphenyl]thio]ethyl]thio]acetic acid] came in with an IC50 against 5-lipoxygenase of 1400 nM. For the same compound, the “Antagonism” value in assay [1] (setting [3]) is listed as 100 mg/kg.

`CCOC(=O)CS(=O)(=O)CCSc1cc(C(C)(C)C)c(O)c(C(C)(C)C)c1` [Example 17, ethyl[[2-[[3,5-bis(1,1-dimethylethyl)-4-hydroxyphenyl]thio]ethyl]sulfonyl]acetate]: the IC50 against 5-lipoxygenase turned out to be 300 nM.

Compound `CC(C)(C)c1cc(SCCSCC(=O)O)cc(C(C)(C)C)c1O` [Example 6, [[2-[[3,5-bis(1,1-dimethylethyl)-4-hydroxyphenyl]thio]ethyl]thio]acetic acid, 2,2',2"nitrilotris[ethanol] salt] had an IC50 against 5-lipoxygenase of 1800 nM. The “Antagonism” value in assay [1] (setting [4]) turned out to be 50 mg/kg.

Take `CC(C)(C)c1cc(SCCSCC(=O)O)cc(C(C)(C)C)c1O` [Example 3, [[2-[[3,5-bis(1,1-dimethylethyl)-4-hydroxyphenyl]thio]ethyl]thio]acetic acid, monosodium salt]: the “Antagonism” value in assay [1] (i.g. @ 3 hr., vehicle 1 (20% DMSO in polyethylene glycol), monosodium salt) is given as 100 mg/kg.

`COC(=O)CSCCSc1cc(C(C)(C)C)c(O)c(C(C)(C)C)c1` [Example 8, methyl[[2-[[3,5-bis(1,1-dimethylethyl)-4-hydroxyphenyl]thio]ethyl]thio]acetate]: the “Antagonism” value in assay [1] (setting [4]) was 100 mg/kg.

`CC(SCC(=O)O)C(C)Sc1cc(C(C)(C)C)c(O)c(C(C)(C)C)c1` (centres unmarked) [Example 20, [[2-[[3,5-bis(1,1-dimethylethyl)-4-hydroxyphenyl]thio]-1-methylpropyl]thio]acetic acid] gave an IC50 at 5-lipoxygenase of 820 nM. For the same compound, in assay [1] (setting [3]), the “Antagonism” value was determined as 32 mg/kg.

As for `Cc1cc(SCCSCC(=O)O)ccc1O` [Example 34, [[2-[(4-hydroxy-3-methylphenyl)thio]ethyl]thio]acetic acid, reference compound], on 5-lipoxygenase, the concentration for half-maximal inhibition (IC50) is ~100000 nM. Further, the “Antagonism” value in assay [1] (setting [3]) stood at 100 mg/kg.

Consider `CCOC(=O)C[S+]([O-])CCSc1cc(C(C)(C)C)c(O)c(C(C)(C)C)c1` (centres unmarked) [Example 12, ethyl[[2-[[3,5-bis(1,1-dimethylethyl)-4-hydroxyphenyl]thio]ethyl]sulfinyl]acetate], for which the IC50 against 5-lipoxygenase is 330 nM.

Consider `CCCCC/C=C\C\C=C/C=C/C=C/[C@@H](SC[C@H](NC(=O)CC[C@H](N)C(=O)O)C(=O)NCC(=O)O)[C@@H](O)CCCC(=O)O` [LTC4], for which the “potency relative to histamine in causing long lasting bronchoconstricting effects” value in assay [2] is “at least 100 times”.

In the case of `COC(=O)CCCSCCSc1cc(C(C)(C)C)c(O)c(C(C)(C)C)c1` [Example 15, methyl 4-[[2-[[3,5-bis(1,1-dimethylethyl)-4-hydroxyphenyl]thio]ethyl]thio]butanoate], the IC50 at 5-lipoxygenase was determined as 120 nM.

`CC(C)(C)c1cc(SCCSCCC(=O)O)cc(C(C)(C)C)c1O` [Example 13, 3-[[2-[[3,5-bis(1,1-dimethylethyl)-4-hydroxyphenyl]thio]ethyl]thio]propanoic acid] had an IC50 at 5-lipoxygenase of 1000 nM. In addition, the “Antagonism” value in assay [1] (i.g. @ 5 hr., vehicle 2 (peanut oil)) is listed as 100 mg/kg.

The compound `O=C(O)CSCCSc1ccc(O)cc1` [Example 37, [[2-[(4-hydroxyphenyl)thio]ethyl]thio]acetic acid, reference compound] registered an IC50 against 5-lipoxygenase of 55000 nM. Also, in assay [1] (setting [3]), the “Antagonism” value worked out at 100 mg/kg.

The compound `COC(=O)CSC(C)C(C)Sc1cc(C(C)(C)C)c(O)c(C(C)(C)C)c1` (centres unmarked) [Example 19, methyl[[2-[[3,5-bis(1,1-dimethylethyl)-4-hydroxyphenyl]thio]-1-methylpropyl]thio]acetate] came in with an IC50 against 5-lipoxygenase of 240 nM. Besides, the “Antagonism” value in assay [1] (setting [3]) turned out to be 32 mg/kg.

Consider `CC(C)(C)c1cc(SCCOCC(=O)O)cc(C(C)(C)C)c1O` [Example 31, [2-[[3,5-bis(1,1-dimethylethyl)-4-hydroxyphenyl]thio]ethoxy]acetic acid], for which the IC50 against 5-lipoxygenase worked out at 7300 nM.

(Values after patent US4755524A, “Novel phenolic thioethers as inhibitors of 5-lipoxygenase” (G. D. Searle & Co., priority 1987, dated 1988).)
